# Oligonucleotides are written 5' to 3', each unit as a sugar letter and its base; * is a phosphorothioate linkage, no mark a phosphodiester; rarer units and linkages stand in square brackets, end groups in braces. Plain capitals give the bases only. d = 2'-deoxy (DNA); r = 2'-OH (RNA)
# Molecular target: UBE2V1
# Assay: reporter assay of Huesken 2005
# Details: siRNA
# Further: test concentration or dose not given here.
row,Substance,normalised inhibition (eCFP-eYFP dual reporter)
1,sense rArArUrGrGrArGrUrGrGrUrGrGrArCrCrCrArAdTdT / antisense rUrUrGrGrGrUrCrCrArCrCrArCrUrCrCrArUrUdAdG,83.5%
2,sense rArArUrUrCrArUrArUrArGrCrArUrCrArArArGdTdT / antisense rCrUrUrUrGrArUrGrCrUrArUrArUrGrArArUrUdCdT,70%
3,sense rArCrCrUrArGrArArArArUrUrUrCrArCrUrGrCdTdT / antisense rGrCrArGrUrGrArArArUrUrUrUrCrUrArGrGrUdTdC,36.5%
4,sense rArGrArArArGrGrArGrUrArGrGrArGrArUrGrGdTdT / antisense rCrCrArUrCrUrCrCrUrArCrUrCrCrUrUrUrCrUdGdG,58.6%
5,sense rArGrArArGrGrCrCrArGrArArArGrGrArGrUrAdTdT / antisense rUrArCrUrCrCrUrUrUrCrUrGrGrCrCrUrUrCrUdTdC,86.1%
6,sense rArGrArCrUrUrGrArArCrCrUrArGrArArArArUdTdT / antisense rArUrUrUrUrCrUrArGrGrUrUrCrArArGrUrCrUdTdC,71.4%
7,sense rArGrArGrCrCrArUrArUrCrArGrUrGrCrUrArGdTdT / antisense rCrUrArGrCrArCrUrGrArUrArUrGrGrCrUrCrUdTdG,90.3%
8,sense rArGrArUrGrGrArCrArGrGrGrArUrGrArUrArAdTdT / antisense rUrUrArUrCrArUrCrCrCrUrGrUrCrCrArUrCrUdTdG,90%
9,sense rArGrCrUrGrGrGrGrUrCrUrArGrArArGrArUrGdTdT / antisense rCrArUrCrUrUrCrUrArGrArCrCrCrCrArGrCrUdAdA,73%
10,sense rArGrGrArArGrArCrUrUrGrArArCrCrUrArGrAdTdT / antisense rUrCrUrArGrGrUrUrCrArArGrUrCrUrUrCrCrUdTdC,78%
11,sense rArGrGrArGrArUrGrGrCrArCrArGrUrUrArGrCdTdT / antisense rGrCrUrArArCrUrGrUrGrCrCrArUrCrUrCrCrUdAdC,60.9%
12,sense rArGrGrArGrUrArGrGrArGrArUrGrGrCrArCrAdTdT / antisense rUrGrUrGrCrCrArUrCrUrCrCrUrArCrUrCrCrUdTdT,92.3%
13,sense rArGrUrArArArArGrUrCrCrCrUrCrGrCrArArUdTdT / antisense rArUrUrGrCrGrArGrGrGrArCrUrUrUrUrArCrUdCdC,91%
14,sense rArGrUrCrCrCrUrCrGrCrArArUrUrUrCrCrGrAdTdT / antisense rUrCrGrGrArArArUrUrGrCrGrArGrGrGrArCrUdTdT,96%
15,sense rArGrUrUrCrUrArArUrGrGrArGrUrGrGrUrGrGdTdT / antisense rCrCrArCrCrArCrUrCrCrArUrUrArGrArArCrUdAdT,56.8%
16,sense rArUrUrUrCrArCrUrGrCrArArArGrGrArGrUrAdTdT / antisense rUrArCrUrCrCrUrUrUrGrCrArGrUrGrArArArUdTdT,95%
17,sense rCrArArArGrUrUrGrUrCrCrUrGrCrArArGrArGdTdT / antisense rCrUrCrUrUrGrCrArGrGrArCrArArCrUrUrUrGdAdT,71.5%
18,sense rCrArArGrArGrCrUrUrCrGrGrCrGrCrCrUrArAdTdT / antisense rUrUrArGrGrCrGrCrCrGrArArGrCrUrCrUrUrGdCdA,84.1%

# — the OligoGym collection
